Data set [1] concerns Plasmodium berghei. The data set can be described thus: Antimalarial activity against Plasmodium berghei infected in mouse assessed as reduction of parasitemia at 50 ug/dose, ip on days 4 to 7. In kind it is functional, organism-based.
The test system of data set [2] is CHO. Nature of the data set: Cytotoxicity against CHO cells assessed as growth inhibition after 48 hrs by MTT assay in absence of uridine. In kind it is cell-based. As to conditions: Cricetulus griseus. On the technique in general: Tetrazolium dyes change colour on reduction, which living cells bring about.
Data set [3] concerns Plasmodium chabaudi. The data set can be described thus: Antimalarial activity against Plasmodium chabaudi chabaudi infected in mouse at 6 mg/day administered as infusion on days 4 to 6 relative to untreated control. In kind it is functional, organism-based.
Data set [4] concerns Plasmodium falciparum. Nature of the data set: Antimalarial activity against Plasmodium falciparum after 72 hrs by lactate dehydrogenase assay in presence of uridine. In kind it is functional, organism-based.
In data set [5] the test system is Mus musculus. Nature of the data set: Toxicity against BALB/c mouse infected with Plasmodium berghei assessed as loss in body weight at 12 mg/dose, ip in presence of uridine. In kind it is organism-based. As to conditions: in vivo.
Data set [6] relates to Plasmodium berghei. Nature of the data set: Antimalarial activity against Plasmodium berghei infected in BALB/c mouse assessed as reduction in parasitemia at 3 mg/dose, ip on days 5 to 7 in presence of uridine. In kind it is functional, organism-based.
Data set [7] relates to Plasmodium berghei. Nature of the data set: Antimalarial activity against Plasmodium berghei infected in BALB/c mouse assessed as reduction in parasitemia at 6 to 12 mg/dose, ip on days 5 to 7. The data set is classed as functional, organism-based.
Data set [8] concerns Plasmodium falciparum. The data set can be described thus: Growth inhibition of Plasmodium falciparum at >250 uM after 72 hrs by lactate dehydrogenase assay in absence of uridine. The data set is classed as functional, organism-based.
Data set [9] concerns Plasmodium berghei. The data set can be described thus: Antimalarial activity against Plasmodium berghei infected in BALB/c mouse assessed as reduction in parasitemia at 3 mg/dose, ip on days 5 to 7. The data set is classed as functional, organism-based.
In data set [10] the test system is Plasmodium falciparum. The data set can be described thus: Antimalarial activity against chloroquine/multidrug-resistant Plasmodium falciparum MB after 72 hrs by lactate dehydrogenase assay. In kind it is functional, organism-based.
Data set [11] relates to Plasmodium chabaudi. Nature of the data set: Antimalarial activity against Plasmodium chabaudi chabaudi infected in BALB/c mouse assessed as reduction in parasitemia at 6 mg/day administered as infusion on days 4 to 6 measured on days 10 to 13 in presence of uridine. The data set is classed as functional, organism-based.
In data set [12] the test system is Plasmodium chabaudi. Nature of the data set: Antimalarial activity against Plasmodium chabaudi chabaudi infected in BALB/c mouse assessed as reduction in parasitemia at 6 mg/day administered as infusion on days 4 to 6 measured on days 10 to 13. In kind it is functional, organism-based.
For data set [13], the system named is Plasmodium falciparum. The data set can be described thus: Antimalarial activity against Plasmodium falciparum 3D7 after 72 hrs by lactate dehydrogenase assay. As to conditions: 3D7, 72 h. In kind it is functional, organism-based.
In another data set the test system is C32. Nature of the data set: Cytotoxicity against human C32 cells after 48 hrs by MTT assay in presence of uridine. As to conditions: c32, 48 h. In kind it is cell-based.
A short description of data set [14]: Hemolytic activity against human erythrocytes at 250 uM. In kind it is ADME, cell-based. As to conditions: erythrocyte.
Data set [15] has as its system Plasmodium falciparum. The data set can be described thus: Antimalarial activity against ring-stage Plasmodium falciparum assessed as decrease in viability at 4 uM incubated for 3 hrs followed by compound washout measured after 48 hrs by SYBR-Green staining-based fluorescence analysis relative to untreated control. In kind it is functional, organism-based.
In data set [16] the test system is Mus musculus. The data set can be described thus: Toxicity against BALB/c mouse infected with Plasmodium berghei assessed as loss in body weight at 3 mg/dose, ip in presence of uridine. The data set is classed as organism-based. As to conditions: in vivo.
For data set [17], the system named is CHO. Nature of the data set: Cytotoxicity against CHO cells at 5 to 250 uM after 48 hrs by MTT assay in presence of uridine. The data set is classed as cell-based, Cricetulus griseus. As to conditions: chinese hamster.
Data set [18] has as its system Plasmodium berghei. Nature of the data set: Antimalarial activity against Plasmodium berghei infected in ip dosed BALB/C mouse. In kind it is functional, organism-based.
For data set [19], the system named is Mus musculus. Nature of the data set: Toxicity against BALB/c mouse infected with Plasmodium berghei assessed as loss in body weight at 6 mg/dose, ip in presence of uridine. The data set is classed as organism-based. As to conditions: in vivo.
For data set [20], the system named is Plasmodium falciparum. The data set can be described thus: Antimalarial activity against Plasmodium falciparum after 72 hrs by lactate dehydrogenase assay in absence of uridine. The data set is classed as functional, organism-based.
The subject of data set [21] is Plasmodium falciparum. Nature of the data set: Antimalarial activity against mature-stage Plasmodium falciparum assessed as decrease in viability at 4 uM incubated for 3 hrs followed by compound washout measured after 48 hrs by SYBR-Green staining-based fluorescence analysis relative to untreated control. In kind it is functional, organism-based.
Data set [22] has as its system Plasmodium falciparum. Nature of the data set: Antimalarial activity against chloroquine/mefloquine-resistant Plasmodium falciparum KC98 after 72 hrs by lactate dehydrogenase assay. In kind it is functional, organism-based. As to conditions: KC98, 72 h.
In data set [23] the test system is Plasmodium falciparum. The data set can be described thus: Antimalarial activity against chloroquine/mefloquine-resistant Plasmodium falciparum KC98358 after 72 hrs by lactate dehydrogenase assay. The data set is classed as functional, organism-based. As to conditions: KC98358, 72 h.
The nature of data set [24]: Selectivity index for Plasmodium falciparum over Plasmodium berghei in presence of uridine. The data set is classed as functional.
Data set [25] relates to Plasmodium falciparum. The data set can be described thus: Antimalarial activity against Plasmodium falciparum FCR3 after 72 hrs by lactate dehydrogenase assay. As to conditions: FCR-3/Gambia. The data set is classed as functional.
Data set [26] concerns Plasmodium chabaudi. Nature of the data set: Antimalarial activity against Plasmodium chabaudi chabaudi infected in ip dosed BALB/C mouse. The data set is classed as functional, organism-based.
In data set [27] the test system is Plasmodium falciparum. Nature of the data set: Antimalarial activity against chloroquine-resistant Plasmodium falciparum ItG after 72 hrs by lactate dehydrogenase assay. The data set is classed as functional, organism-based.
Data set [28] can be described thus: Therapeutic index, ratio of IC50 for CHO cells to IC50 for Plasmodium falciparum in presence of uridine. In kind it is cell-based. As to conditions: hamster, CHO cells versus Plasmodium falciparum; read-out: Ratio IC50.
Data set [29] can be described thus: Therapeutic index, ratio of IC50 for CHO cells to IC50 for Plasmodium falciparum in absence of uridine. In kind it is cell-based. As to conditions: hamster, CHO cells versus Plasmodium falciparum; read-out: Ratio IC50.
The test system of data set [30] is Plasmodium berghei. The data set can be described thus: Antimalarial activity against Plasmodium berghei infected in BALB/c mouse assessed as reduction in parasitemia at 6 to 12 mg/dose, ip on days 5 to 7 in presence of uridine. The data set is classed as functional, organism-based.
The subject of data set [31] is Plasmodium falciparum. The data set can be described thus: Antimalarial activity against chloroquine/multidrug-resistant Plasmodium falciparum SB after 72 hrs by lactate dehydrogenase assay. The data set is classed as functional, organism-based.
For data set [32], the system named is Plasmodium berghei. The data set can be described thus: Antimalarial activity against Plasmodium berghei infected in mouse assessed as reduction of parasitemia at 8 mg/dose, ip on days 4 to 7 relative to untreated control. In kind it is functional, organism-based.
In data set [33] the test system is Plasmodium chabaudi. Nature of the data set: Antimalarial activity against Plasmodium chabaudi chabaudi infected in mouse assessed as reduction in parasitemia at 6.9 mg/day administered as infusion on days 4 to 6. The data set is classed as functional, organism-based.
For data set [34], the system named is Plasmodium chabaudi. Nature of the data set: Antimalarial activity against Plasmodium chabaudi chabaudi infected in mouse assessed as reduction in parasitemia at 7.1 mg/day administered as infusion on days 4 to 6. In kind it is functional, organism-based.

Activity calls are given as the source filed them. The calls are words filed in the database; no cut-off is given here.

For `O=c1cc(I)n([C@@H]2O[C@H](CO)[C@@H](O)[C@H]2O)c(=O)[nH]1`, the outcome with Plasmodium berghei [1], with Plasmodium berghei [6], with Plasmodium berghei [7], in the data set with Plasmodium berghei [9], in the data set on Plasmodium chabaudi [11] and in the data set with Plasmodium falciparum [15] was Active. For the same compound, in the data set on Plasmodium berghei [30], the result was Active. Besides, the IC50 (commonly the concentration at which inhibition is half-maximal) with CHO [2] was determined as 491 µM; in the data set on Plasmodium falciparum [4] it was 11.2 µM; in the data set on Plasmodium falciparum [10] it was 18.7 µM; with Plasmodium falciparum [13] it was 27 µM; with Plasmodium berghei [18], 303 µM; in the data set with Plasmodium falciparum [20], 13.2 µM. The IC50 in the data set with Plasmodium falciparum [22] came out at 2.3 µM; with Plasmodium falciparum [23], 1.4 µM; in the data set with Plasmodium falciparum [25], 56.5 µM; with Plasmodium chabaudi [26], 300 µM; with Plasmodium falciparum [27], 1.2 µM; with Plasmodium falciparum [31], 29.1 µM. Also, the outcome in the data set on Plasmodium chabaudi [3], in the data set on Plasmodium chabaudi [12] and in the data set on Plasmodium falciparum [21] was inactive. For the same compound, the Activity entry in the data set with Mus musculus [5] is recorded as “Toxic”; with C32, “Non-toxic”; in data set [14], “Toxic”; in the data set on Mus musculus [16], “Non-toxic”; in the data set with CHO [17] it was “Toxic”; in the data set with Mus musculus [19] it was “Toxic”. In addition, the “growth inhibition (GI)” value in the data set with Plasmodium falciparum [8] is “Active”. Besides, the Selectivity Index in data set [24] was found to be 2. For the same compound, the selectivity ratio in [28] turned out to be 35; in data set [29], 38.

As to `CC[C@H]1OC(=O)[C@H](C)[C@@H](O[C@H]2C[C@@](C)(OC)[C@@H](O)[C@H](C)O2)[C@H](C)[C@@H](O[C@@H]2O[C@H](C)C[C@H](N(C)C)[C@H]2O)[C@](C)(O)C[C@@H](C)CN(C)[C@H](C)[C@@H](O)[C@]1(C)O`, the result in the data set on Plasmodium berghei [32] was inactive.

As to `CCCC(=O)OC[C@H]1O[C@@H](n2c(I)cc(=O)[nH]c2=O)[C@H](O)[C@@H]1O`, half-maximal inhibition in the data set with Plasmodium falciparum [25] (IC50) was put at 166 µM. The outcome with Plasmodium chabaudi [33] was Active.

In the case of `C[n+]1cnn(CCCCCCCCCCCCn2c[n+](C)cn2)c1`, in the data set on Plasmodium berghei [18], the result was Active.

On to `CCC(=O)OC[C@H]1O[C@@H](n2c(I)cc(=O)[nH]c2=O)[C@H](O)[C@@H]1O`, for which the outcome with Plasmodium chabaudi [34] was inactive. Besides, in the data set on Plasmodium falciparum [25], the IC50 was 85 µM.
